This data set is described as follows: solvent given as SMILES.

In turn, `CC(C)(C)c1ccc2c(c1)c1cc(C(C)(C)C)ccc1n2-c1ccc(S(=O)(=O)c2ccc(-n3c4ccc(C(C)(C)C)cc4c4cc(C(C)(C)C)ccc43)cn2)nc1` yielded an emission maximum (in Cc1ccccc1) of 444.37 nm and an emission maximum (in O=P(c1ccccc1)(c1ccccc1)c1ccc2sc3cccc(P(=O)(c4ccccc4)c4ccccc4)c3c2c1) of 444 nm.

For the molecule `CCCCCCCCCCOc1ccc2cc(C3=C4C(=O)N(CC(OCC)OCC)C(c5cc6ccc(OCCCCCCCCCC)cc6o5)=C4C(=O)N3CC(OCC)OCC)oc2c1`, for the setting “in ClC(Cl)Cl”, the emission maximum came out at 613 nm.

As for `CCC1(CC)c2cc(B(c3c(C)cc(C)cc3C)c3c(C)cc(C)cc3C)ccc2-c2ccc(N(c3ccccc3)c3ccc4c(c3)C(CC)(CC)c3cc(B(c5c(C)cc(C)cc5C)c5c(C)cc(C)cc5C)ccc3-4)cc21`, the emission maximum reads like this: (in C1CCOC1) 490 nm; (in CC#N) 538 nm; (in CC(C)=O) 515 nm; (in CCCCCC) 445 nm; (in CN(C)C=O) 533 nm; (in Cc1ccccc1) 461 nm. Also, the emission maximum (in ClC(Cl)Cl) was determined as 477 nm.

In the case of `Cc1ccc(-c2ccc(/C=C/c3cccn3C)cn2)nc1`, the emission maximum (in C1COCCO1) is recorded as 464 nm; the emission maximum (in CC#N) came to 488 nm; the emission maximum (in CCCCCC) came to 436 nm; the emission maximum (in CCO) is given as 501 nm; the emission maximum (in CN(C)C=O) is recorded as 493 nm; the emission maximum (in CO) is recorded as 507 nm. For the same molecule, the emission maximum was determined as 500 nm (in CS(C)=O), 459 nm (in Cc1ccccc1), 476 nm (in ClC(Cl)Cl) and 464 nm (in c1ccccc1).

`COC(=O)C(CCCCNC(=O)CCNc1cccc2ccccc12)NC(C)=O` (stereo not drawn) came in with an emission maximum (in CCO) of 417 nm.

The molecule `CN1C(=CC2=C([S-])C(=CC3=[N+](C)c4ccccc4C3(C)C)C2=O)C(C)(C)c2ccccc21` came in with an emission maximum (in ClC(Cl)Cl) of 663 nm.

Molecule `C(=C\c1ccc(-c2ccccc2)cc1)/c1ccc(Oc2ccc3ccccc3c2-c2c(Oc3ccc(/C=C/c4ccc(-c5ccccc5)cc4)cc3)ccc3ccccc23)cc1` returned an emission maximum (in ClCCl) of 385 nm.

In the case of `N#CC(C#N)=C(/C=C/c1cn(-c2ccccc2)nc1-c1ccccc1)c1ccccc1`, the emission maximum is, setting by setting: (in C1CCOC1) 459 nm; (in C1COCCO1) 461 nm; (in CCO) 497 nm; (in CCOC(C)=O) 487 nm; (in CN(C)C=O) 504 nm; (in CO) 496 nm. Further, the emission maximum runs as follows: (in CS(C)=O) 509 nm; (in Cc1ccccc1) 460 nm; (in ClC(Cl)Cl) 488 nm; (in ClCCl) 489 nm.

With `CCCCNC(=O)c1nc2c(N(C)C)nc(N(C)C)nc2n1Cc1ccccc1`, the emission maximum (in C1COCCO1) is reported as 392 nm, the emission maximum (in CC#N) turned out to be 405 nm, the emission maximum (in CO) came to 424 nm and the emission maximum (in ClCCl) is 402 nm.

As for `F[B-]1(F)n2c(Cl)ccc2C(c2c(Cl)cccc2Cl)=C2C=CC(NCc3ccccc3)=[N+]21`, the emission maximum by setting is: (in CC#N) 532 nm; (in CCCCCC) 538 nm; (in CCOC(C)=O) 532 nm; (in CO) 531 nm; (in ClCCl) 537 nm.

Consider `O=C1c2ccccc2C2=Cc3ccc4ccccc4[n+]3[B-](F)(F)N12`, for which the emission maximum is 465 nm (in CCO), 474 nm (in Cc1ccccc1) and 464 nm (in ClCCl).

For the setting “in ClCCl”, `CCCCc1cc2c3c(c1)-c1ccccc1B(c1c(C)cc(C)cc1C)N3B(c1c(C)cc(C)cc1C)c1ccccc1-2` registered an emission maximum of 413 nm.

As for `CCC1=C(C)C2=C(c3c4ccccc4c(C)c4ccccc34)c3c(C)c(CC)c(C)n3[B-](F)(F)[N+]2=C1C`, the emission maximum by setting is: (in CC#N) 538 nm; (in CCCCCC) 540 nm; (in CCO) 538 nm; (in CN(C)C=O) 540 nm; (in Cc1ccccc1) 544 nm; (in ClCCl) 543 nm.

Turning to `c1ccc(-c2cnc3nn4ccccc4c3c2)cc1`, the emission maximum (in C1CCOC1) came to 415 nm.

The molecule `CC1(C)C2=C(c3ccccc31)S(=O)(=O)c1ccccc12` had an emission maximum (in ClCCl) of 444 nm.

Regarding `CC(O)CC1=N/C(=C\c2cccc(N(C)C)c2)C(=O)N1C` (stereo not drawn), the emission maximum runs as follows: (in C1CCOC1) 585 nm; (in CC#N) 642 nm; (in CCCCCC) 506 nm.

As for `COC(=O)C1=C(C(=O)OC)C2(c3ccccc3-c3ccccc32)[C@@H](c2ccccc2)C=C2c3cc(OC)c(OC)cc3CCN21`, the emission maximum (in ClCCl) is 431 nm.

`COC(=O)c1cc(=O)n(C)c2cc(-c3ccccc3OC)sc12` displayed an emission maximum (in CC#N) of 468 nm and an emission maximum (in ClCCl) of 469 nm.

As to `Cc1cc(C)c(C2=C3C=CC=[N+]3[B-]3(c4cccc5ccccc45)Oc4cc(O)cc5c6ccc(C)cc6c6cc2n3c6c45)c(C)c1` (stereo not drawn), the emission maximum (in ClC(Cl)Cl) was determined as 669 nm.

For the setting “in O”, `CCN(CC)c1ccc2c(c1)C(C)(C)C(=O)C=C2` gave an emission maximum of 552 nm.

On to `CC(C)c1ccc(/C=C/c2nc3ccc(N(C)C)cc3s2)cc1`, for which the emission maximum reads like this: (in C1CCCCC1) 454 nm; (in CC#N) 517 nm.

Molecule `C[n+]1cc2ccc3c[n+](C)c4ccccc4c3c2c2ccccc21` gave an emission maximum (in CC#N) of 504 nm.

With `Cc1cc2ccccc2c2c1c1ccccc1n2C(=O)OC(C)(C)C`, the emission maximum (in ClCCl) is 355 nm.

Molecule `CC1(C)c2ccccc2N(c2ccc(-c3nc4c(C#N)ccc(C#N)c4nc3-c3ccc(N4c5ccccc5C(C)(C)c5ccccc54)cc3)cc2)c2ccccc21` had an emission maximum (in Cc1ccccc1) of 663 nm.

Regarding `O=C(c1ccc(N2c3ccccc3Sc3ccccc32)cc1)c1ccc2sc3ccccc3c2c1`, the emission maximum is, setting by setting: (in C1CCOC1) 604 nm; (in c1ccc2c(c1)c1ccccc1n2-c1ccc(-c2ccc(-n3c4ccccc4c4ccccc43)cc2)cc1) 524 nm.

As for `CCCCC1(CCCC)c2cc(C#Cc3ccc(C=C(c4ccccc4)c4ccccc4)cc3)ccc2-c2ccc(C#Cc3ccc(C=C(c4ccccc4)c4ccccc4)cc3)cc21`, where the note is “in C1CCOC1”, the emission maximum is recorded as 416 nm.

Consider `c1ccc2c(c1)Cc1cc3c(cc1-2)Cc1ccccc1-3`, for which the emission maximum is on record as 340 nm (in C1CCCCC1) and 356 nm (in ClCCl).

`CN(C)c1ccc(/C=C/C(=O)c2ccc(Cl)cc2)cc1` returned an emission maximum (in C1CCOC1) of 516 nm; an emission maximum (in CC#N) of 540 nm; an emission maximum (in CC(=O)O) of 521 nm; an emission maximum (in CC(C)=O) of 532 nm; an emission maximum (in CCO) of 542 nm; an emission maximum (in CN(C)C=O) of 542 nm. The emission maximum by setting is: (in CO) 544 nm; (in Cc1ccccc1) 486 nm; (in ClC(Cl)Cl) 522 nm; (in c1ccccc1) 488 nm.

Regarding `N#Cc1c(-n2c3ccccc3c3ccccc32)c(-n2c3ccccc3c3ccccc32)c(C#N)c(-n2c3ccccc3c3ccccc32)c1-n1c2ccccc2c2ccccc21`, the emission maximum (in Cc1ccccc1) amounted to 535 nm.

`COc1ccc(/C=C/C=C/C=C/c2ccc([N+](=O)[O-])cc2)cc1`: the emission maximum is, setting by setting: (in C1CCOC1) 611 nm; (in C1COCCO1) 565 nm; (in CC1CCCCC1) 485 nm; (in CC#N) 740 nm; (in CO) 690 nm; (in CS(C)=O) 744 nm. In addition, the emission maximum worked out at 541 nm (in Cc1ccccc1), 681 nm (in ClC(Cl)Cl) and 694 nm (in ClCCl).

Take `COc1ccc(C#Cc2c3ccccc3c(C#Cc3ccc(OC)cc3)c3cc4sc(C)cc4cc23)cc1`: the emission maximum (in ClCCl) was 538 nm.

On to `c1ccc(-c2nc(-c3nc(-c4ccccc4)c(-c4ccccc4)o3)oc2-c2ccccc2)cc1`, for which, for the setting “in C1COCCO1”, the emission maximum was 411 nm.

Turning to `O=C(c1ccc2c3c(cccc13)-c1cccc3c1C2CC=C3)c1c(CCc2ccccc2)c2ccc3cccc4c5cccc6ccc1c(c65)c2c34` (stereo not drawn), where the note is “in ClCCl”, the emission maximum stood at 527 nm.

`CCCC1(CCC)c2cc(-c3ccc(-c4ccc(OC)cc4)o3)ccc2-c2ccc(-c3ccc(-c4ccc(OC)cc4)o3)cc21`: the emission maximum (in C1CCCCC1) stood at 425 nm.

Regarding `CCN(CC)c1ccc(-c2ccc(-c3nc(C#N)c4ccccc4n3)s2)cc1`, the emission maximum by setting is: (in CC#N) 539 nm; (in Cc1ccccc1) 471 nm.

Regarding `CC[N+](CC)=c1ccc2cc3oc4cc(N)ccc4c3oc-2c1`, the emission maximum reads like this: (in CCO) 629 nm; (in ClCCl) 623 nm; (in O) 627 nm.

Take `Cc1cc2ccc(-c3cccc4cccc(-c5ccc6cc(C)c(=O)oc6c5)c34)cc2oc1=O`: the emission maximum by setting is: (in C1CCCCC1) 392 nm; (in C1COCCO1) 399 nm; (in CC#N) 420 nm; (in CCO) 442 nm; (in CCOC(C)=O) 403 nm; (in CN(C)C=O) 417 nm. Also, the emission maximum runs as follows: (in CO) 452 nm; (in c1ccccc1) 398 nm.

In turn, `Cc1ccc(C)c2nc3c(=O)[nH]c(=O)[nH]c3nc12` gave an emission maximum (in CC#N) of 491 nm.

Take `CC1(C)C(/C=C/C2=C(Cl)C(=C/C=C3/N(CCCCCC(=O)O)c4ccccc4C3(C)C)/CCC2)=[N+](CCCCCC(=O)O)c2ccccc21`: the emission maximum (in CO) is recorded as 808 nm.

For the molecule `C1=Cc2ccccc2C(=Cc2ccc(C=C3c4ccccc4-c4ccccc43)cc2)c2ccccc21`, the emission maximum (in C1CCOC1) is listed as 444 nm.

In turn, `CC(C)(C)OC(=O)NC(Cc1ccccc1)C(=O)OCc1ccc2c3cccc4cccc(c5cccc1c52)c43` (stereo not drawn) gave an emission maximum (in CCO) of 447 nm.

In the case of `CC1(C)c2ccccc2N(c2ccc3c(ccc4nc5ccc6cc(N7c8ccccc8C(C)(C)c8ccccc87)ccc6c5nc43)c2)c2ccccc21`, the emission maximum is 484 nm (in C1CCCCC1), 661 nm (in C1CCOC1), 552 nm (in Cc1ccccc1) and 699 nm (in ClCCl).

As for `F[B-]1(F)Oc2ccc3ccccc3c2-c2c3c(c4c([n+]21)CCc1ccccc1-4)CCc1ccccc1-3`, the emission maximum (in ClCCl) stood at 476 nm.

Source of the values: the Deep4Chem optical property database.
